Assay: Antagonist activity at CCR2 in human PBMCs assessed as inhibition of MCP1-induced chemotaxis

SMILES | IC50 [nM]
CCNc1cc(C(=O)NCC(=O)N[C@@H](CNCc2ccc(C)cc2C)C(=O)NC(C)(C)C)cc(C(F)(F)F)c1 [(S)-N-(2-(3-(2,4-dimethylbenzylamino)-1-(tert-butylamino)-1-oxopropan-2-ylamino)-2-oxoethyl)-3-(ethylamino)-5-(trifluoromethyl)benzamide] | 190
Cc1ccc(CNC[C@H](NC(=O)CNC(=O)c2cccc(C(F)(F)F)c2)C(N)=O)c(C)c1 [(S)-N-(2-(3-(2,4-dimethylbenzylamino)-1-amino-1-oxopropan-2-ylamino)-2-oxoethyl)-3-(trifluoromethyl)benzamide] | > 1500
Cc1ccc(CNC[C@H](NC(=O)CNC(=O)c2cc(N)cc(C(F)(F)F)c2)C(=O)NC(C)(C)C)c(C)c1 [(S)-N-(2-(3-(2,4-dimethylbenzylamino)-1-(tert-butylamino)-1-oxopropan-2-ylamino)-2-oxoethyl)-3-amino-5-(trifluoromethyl)benzamide] | 720
Cc1ccc(CNC[C@H](NC(=O)CNC(=O)c2cc(C(F)(F)F)ccc2NC(=O)NC(C)C)C(=O)NC(C)(C)C)c(C)c1 [(S)-1-(2-((2-(3-(2,4-dimethylbenzylamino)-1-(tert-butylamino)-1-oxopropan-2-ylamino)-2-oxoethyl)carbamoyl)-4-(trifluoromethyl)phenyl)-3-isopropylurea] | 240
Cc1ccc(CNC[C@H](NC(=O)CNC(=O)c2cc(C(F)(F)F)ccc2NCc2ccccc2)C(=O)NC(C)(C)C)c(C)c1 [(S)-N-(2-(3-(2,4-dimethylbenzylamino)-1-(tert-butylamino)-1-oxopropan-2-ylamino)-2-oxoethyl)-2-(benzylamino)-5-(trifluoromethyl)benzamide] | 39
CCNc1ccc(C(F)(F)F)cc1C(=O)NCC(=O)N[C@@H](CNCc1ccc(C)cc1C)C(=O)NC(C)(C)C [(S)-N-(2-(3-(2,4-dimethylbenzylamino)-1-(tert-butylamino)-1-oxopropan-2-ylamino)-2-oxoethyl)-2-(ethylamino)-5-(trifluoromethyl)benzamide] | 100
Cc1ccc(CNC[C@H](NC(=O)CNC(=O)c2cc(C(F)(F)F)ccc2N)C(=O)NC(C)(C)C)c(C)c1 [(S)-N-(2-(3-(2,4-dimethylbenzylamino)-1-(tert-butylamino)-1-oxopropan-2-ylamino)-2-oxoethyl)-2-amino-5-(trifluoromethyl)benzamide] | 260
Cc1ccc(CNC[C@H](NC(=O)CNC(=O)c2cccc(C(F)(F)F)c2)C(=O)NC(C)(C)C)c(C)c1 [(S)-N-(2-(3-(2,4-dimethylbenzylamino)-1-(tert-butylamino)-1-oxopropan-2-ylamino)-2-oxoethyl)-3-(trifluoromethyl)benzamide] | > 3000

Reference: BindingDB's records for doi:10.1016/j.bmcl.2007.07.028 (Bristol-Myers Squibb, 2007)
